Assays:
[1] = test system: MOLM-14 D835Y (endogenous FLT3 ITD and transfected FLT3 D835Y); experiment: MOLM-14 D835Y cell proliferation assay (CellTiter-Glo); type: cell-based; conditions: Homo sapiens, MOLM-14, 72 h; 3 d growth, GMean
Outline: (§1)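 Three-day proliferation at 37 °C/5% CO2 of FLT3-ITD MOLM-14 lines with D835Y or F691L mutation, seeded 1×10^4 per well. Compounds at eight points, top 1 μM final, 0.2% DMSO. ATP luminescence (CellTiter-Glo) gives IC50.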

[2] = test system: MOLM-14 F691L (endogenous FLT3 ITD and transfected FLT3 F691L); experiment: MOLM-14 F691L cell proliferation assay (CellTiter-Glo); type: cell-based; conditions: Homo sapiens, MOLM-14, 72 h; 3 d growth, GMean
Outline: as §1

BA/F3-FLT3-ITD + D835Y = molecular target: T1, BA/F3-FLT3-ITD + D835Y (Homo sapiens, UniProt P36888, D835Y, cells depend on it, form not given); experiment: Engineered BA/F3 cell growth assay, FLT3 ITD/D835Y; type: cell-based, murine; conditions: 3 d growth
T1 sequence (P36888 with tags, fused parts or gaps INS600HVDFREYEYD/D835Y): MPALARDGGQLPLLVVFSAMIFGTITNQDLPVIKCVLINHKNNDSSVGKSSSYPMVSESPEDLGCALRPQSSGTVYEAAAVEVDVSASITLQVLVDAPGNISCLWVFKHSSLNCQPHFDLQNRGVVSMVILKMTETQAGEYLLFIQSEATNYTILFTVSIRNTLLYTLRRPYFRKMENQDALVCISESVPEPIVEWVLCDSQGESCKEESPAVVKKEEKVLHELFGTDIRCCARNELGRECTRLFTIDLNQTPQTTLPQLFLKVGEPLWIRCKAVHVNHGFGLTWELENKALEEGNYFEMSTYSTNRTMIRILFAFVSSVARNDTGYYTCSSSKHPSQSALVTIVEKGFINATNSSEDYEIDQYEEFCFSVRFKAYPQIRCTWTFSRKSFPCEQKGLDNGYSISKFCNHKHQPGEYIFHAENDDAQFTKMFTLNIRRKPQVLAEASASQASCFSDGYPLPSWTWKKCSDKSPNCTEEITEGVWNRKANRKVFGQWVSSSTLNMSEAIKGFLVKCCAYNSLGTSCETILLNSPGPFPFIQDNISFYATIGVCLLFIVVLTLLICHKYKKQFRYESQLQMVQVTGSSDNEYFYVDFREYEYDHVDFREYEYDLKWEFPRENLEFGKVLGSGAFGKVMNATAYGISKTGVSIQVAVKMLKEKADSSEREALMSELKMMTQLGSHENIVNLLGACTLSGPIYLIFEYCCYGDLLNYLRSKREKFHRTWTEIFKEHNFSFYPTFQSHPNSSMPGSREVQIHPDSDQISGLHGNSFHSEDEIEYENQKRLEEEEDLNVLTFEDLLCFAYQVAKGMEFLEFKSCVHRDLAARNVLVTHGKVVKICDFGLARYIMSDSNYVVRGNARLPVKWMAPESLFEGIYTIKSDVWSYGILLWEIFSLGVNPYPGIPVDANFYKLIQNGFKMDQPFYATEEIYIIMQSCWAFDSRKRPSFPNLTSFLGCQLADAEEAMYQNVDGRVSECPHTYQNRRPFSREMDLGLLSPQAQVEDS
Outline: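 Murine Ba/F3 cells transfected with full-length FLT3 ITD/D835Y, grown without IL-3 so growth depends on FLT3. Seeded at 1×10^4 cells/well, 8-point 1:3 series to 1 μM top (0.2% DMSO), 3 days at 37 °C. CellTiter-Glo luminescence (ATP) versus concentration gave IC50.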

SMILES | IC50 [1] | IC50 [2] | GI50 (BA/F3-FLT3-ITD + D835Y)
COc1ncc(NC(=O)Cc2ccc(-c3cnc(Nc4cn(C)cn4)nc3)cc2F)cc1C(F)(F)F [Compound P-0101, 2-[2-fluoro-4-[2-[(1-methylimidazol-4-yl)amino]pyrimidin-5-yl]phenyl]-N-[6-methoxy-5-(trifluoromethyl)-3-pyridyl]acetamide] | 0.0001 to 10 µM | 0.0001 to 10 µM | 0.0001 to 10 µM
Cn1cnc(Nc2ncc(-c3ccc(CC(=O)Nc4cc(C(C)(F)F)ccn4)c(F)c3)cn2)c1 [Compound P-0102, N-[4-(1,1-difluoroethyl)-2-pyridyl]-2-[2-fluoro-4-[2-[(1-methylimidazol-4-yl)amino]pyrimidin-5-yl]phenyl]acetamide] | 0.0001 to 10 µM | 0.0001 to 10 µM | 0.0001 to 10 µM
Cn1cnc(Nc2ncc(-c3ccc(CC(=O)Nc4cncc(C(C)(F)F)c4)c(F)c3)cn2)c1 [Compound P-0103, N-[5-(1,1-difluoroethyl)-3-pyridyl]-2-[2-fluoro-4-[2-[(1-methylimidazol-4-yl)amino]pyrimidin-5-yl]phenyl]acetamide] | 0.0001 to 10 µM | 0.0001 to 10 µM | 0.0001 to 10 µM
Cn1cc(Nc2ncc(-c3ccc(CC(=O)Nc4cc(Cl)c(C5CC5)cn4)c(F)c3)cn2)cn1 [Compound P-0107, N-(4-chloro-5-cyclopropyl-2-pyridyl)-2-[2-fluoro-4-[2-[(1-methylpyrazol-4-yl)amino]pyrimidin-5-yl]phenyl]acetamide] | 0.0001 to 10 µM | 0.0001 to 10 µM | 0.0001 to 10 µM
Cn1cc(Nc2ncc(-c3ccc(CC(=O)Nc4ccc(C(F)(F)F)cn4)cc3)cn2)cn1 [Compound P-0109, 2-[4-[2-[(1-methylpyrazol-4-yl)amino]pyrimidin-5-yl]phenyl]-N-[5-(trifluoromethyl)-2-pyridyl]acetamide] | 0.0001 to 10 µM | 0.0001 to 10 µM | 0.0001 to 10 µM
Cn1cc(Nc2ncc(-c3ccc(CC(=O)Nc4cccnc4)cc3)cn2)cn1 [Compound P-0131, 2-[4-[2-[(1-methylpyrazol-4-yl)amino]pyrimidin-5-yl]phenyl]-N-(3-pyridyl)acetamide] | 0.0001 to 10 µM | 0.0001 to 10 µM | 0.0001 to 10 µM
Cn1cc(Nc2ncc(-c3ccc(CC(=O)NCc4cccnc4)cc3)cn2)cn1 [Compound P-0132, 2-[4-[2-[(1-methylpyrazol-4-yl)amino]pyrimidin-5-yl]phenyl]-N-(3-pyridylmethyl)acetamide] | 0.0001 to 10 µM | 0.0001 to 10 µM | 0.0001 to 10 µM
COc1cncc(NC(=O)Cc2ccc(-c3cnc(Nc4cnn(C)c4)nc3)cc2)c1 [Compound P-0133, N-(5-methoxy-3-pyridyl)-2-[4-[2-[(1-methylpyrazol-4-yl)amino]pyrimidin-5-yl]phenyl]acetamide] | 0.0001 to 10 µM | 0.0001 to 10 µM | 0.0001 to 10 µM
Cn1cc(Nc2ncc(-c3ccc(CC(=O)Nc4ccnc(C(F)(F)F)n4)cc3)cn2)cn1 [Compound P-0137, 2-[4-[2-[(1-methylpyrazol-4-yl)amino]pyrimidin-5-yl]phenyl]-N-[2-(trifluoromethyl)pyrimidin-4-yl]acetamide] | 0.0001 to 10 µM | 0.0001 to 10 µM | 0.0001 to 10 µM
Cn1cc(Nc2ncc(-c3ccc(CC(=O)Nc4cc(C(F)(F)F)ccn4)cc3)cn2)cn1 [Compound P-0139, 2-[4-[2-[(1-methylpyrazol-4-yl)amino]pyrimidin-5-yl]phenyl]-N-[4-(trifluoromethyl)-2-pyridyl]acetamide] | 0.0001 to 10 µM | 0.0001 to 10 µM | 0.0001 to 10 µM

The remaining lines, values ahead:

IC50 [1] | IC50 [2] | GI50 (BA/F3-FLT3-ITD + D835Y) | SMILES
0.0001 to 10 µM | 0.0001 to 10 µM | 0.0001 to 10 µM | Cn1cc(Nc2ncc(-c3ccc(CC(=O)Nc4cnc(F)c(C(C)(F)F)c4)cc3)cn2)cn1 [Compound P-0104, N-[5-(1,1-difluoroethyl)-6-fluoro-3-pyridyl]-2-[4-[2-[(1-methylpyrazol-4-yl)amino]pyrimidin-5-yl]phenyl]acetamide]
0.0001 to 10 µM | 0.0001 to 10 µM | 0.0001 to 10 µM | Cn1cc(Nc2ncc(-c3ccc(CC(=O)Nc4cnc(F)c(C(C)(F)F)c4)c(F)c3)cn2)cn1 [Compound P-0105, N-[5-(1,1-difluoroethyl)-6-fluoro-3-pyridyl]-2-[2-fluoro-4-[2-[(1-methylpyrazol-4-yl)amino]pyrimidin-5-yl]phenyl]acetamide]
0.0001 to 10 µM | 0.0001 to 10 µM | 0.0001 to 10 µM | Cn1cc(Nc2ncc(-c3ccc(CC(=O)Nc4ccc(C(F)(F)F)cn4)c(F)c3)cn2)cn1 [Compound P-0106, 2-[2-fluoro-4-[2-[(1-methylpyrazol-4-yl)amino]pyrimidin-5-yl]phenyl]-N-[5-(trifluoromethyl)-2-pyridyl]acetamide]
0.0001 to 10 µM | 0.0001 to 10 µM | 0.0001 to 10 µM | Cn1cc(Nc2ncc(-c3ccc(CC(=O)Nc4ccc(C(C)(C)C#N)nc4)c(F)c3)cn2)cn1 [Compound P-0108, N-[6-(1-cyano-1-methyl-ethyl)-3-pyridyl]-2-[2-fluoro-4-[2-[(1-methylpyrazol-4-yl)amino]pyrimidin-5-yl]phenyl]acetamide]
0.0001 to 10 µM | 0.0001 to 10 µM | 0.0001 to 10 µM | Cn1cc(Nc2ncc(-c3ccc(CC(=O)Nc4ccc(C(F)(F)F)nc4)c(F)c3)cn2)cn1 [Compound P-0110, 2-[2-fluoro-4-[2-[(1-methylpyrazol-4-yl)amino]pyrimidin-5-yl]phenyl]-N-[6-(trifluoromethyl)-3-pyridyl]acetamide]
0.0001 to 10 µM | 0.0001 to 10 µM | 0.0001 to 10 µM | CCc1cncc(NC(=O)Cc2ccc(-c3cnc(Nc4cnn(C)c4)nc3)cc2F)c1 [Compound P-0111, N-(5-ethyl-3-pyridyl)-2-[2-fluoro-4-[2-[(1-methylpyrazol-4-yl)amino]pyrimidin-5-yl]phenyl]acetamide]
0.0001 to 10 µM | 0.0001 to 10 µM | 0.0001 to 10 µM | Cn1cc(Nc2ncc(-c3ccc(CC(=O)Nc4ccnc(C(F)(F)F)c4)cc3)cn2)cn1 [Compound P-0134, 2-[4-[2-[(1-methylpyrazol-4-yl)amino]pyrimidin-5-yl]phenyl]-N-[2-(trifluoromethyl)-4-pyridyl]acetamide]
0.0001 to 10 µM | 0.0001 to 10 µM | 0.0001 to 10 µM | Cn1cc(Nc2ncc(-c3ccc(CC(=O)Nc4cc(C(F)(F)F)ncn4)cc3)cn2)cn1 [Compound P-0135, 2-[4-[2-[(1-methylpyrazol-4-yl)amino]pyrimidin-5-yl]phenyl]-N-[6-(trifluoromethyl)pyrimidin-4-yl]acetamide]
0.0001 to 10 µM | 0.0001 to 10 µM | 0.0001 to 10 µM | Cn1cc(Nc2ncc(-c3ccc(CC(=O)Nc4cncc(C(F)(F)F)c4)cc3)cn2)cn1 [Compound P-0136, 2-[4-[2-[(1-methylpyrazol-4-yl)amino]pyrimidin-5-yl]phenyl]-N-[5-(trifluoromethyl)-3-pyridyl]acetamide]
0.0001 to 10 µM | 0.0001 to 10 µM | 0.0001 to 10 µM | COc1ncc(NC(=O)Cc2ccc(-c3cnc(Nc4cnn(C)c4)nc3)cc2)cc1C(F)(F)F [Compound P-0138, N-[6-methoxy-5-(trifluoromethyl)-3-pyridyl]-2-[4-[2-[(1-methylpyrazol-4-yl)amino]pyrimidin-5-yl]phenyl]acetamide]
0.0001 to 10 µM | 0.0001 to 10 µM | 0.0001 to 10 µM | Cc1ncc(NC(=O)Cc2ccc(-c3cnc(Nc4cnn(C)c4)nc3)cc2)cc1C(F)(F)F [Compound P-0140, 2-[4-[2-[(1-methylpyrazol-4-yl)amino]pyrimidin-5-yl]phenyl]-N-[6-methyl-5-(trifluoromethyl)-3-pyridyl]acetamide]
